Experiment [1] concerns primary mouse CD4+ T cells. The experiment is described as follows: MTS proliferation assay. In kind it is cell-based. On the procedure: Compounds A-D were tested to determine whether they could inhibit TGF-β signaling in primary mouse CD4^+ T cells.
Primary mouse CD4^+ T cells were isolated from the spleens of C57/B6 mice using the RoboSep™ cell isolation system (Stemcell Technologies). 0.5 μg/ml of hamster anti-mouse CD3e antibody (145-2C11; eBioscience) was coated onto a 96 well flat bottom plate overnight. 1×10^5 purified CD4^+ T cells were incubated with 1 μg/ml soluble hamster anti-mouse CD28 antibody (37.51, BD Biosciences), 1 nM TGF-β1 and 8-fold serial dilutions of Compounds A-D. After 72 hours, cell proliferation was measured using an MTS assay (Promega) in accordance with the manufacturer's instructions.
A general note: Formazan colour is commonly taken as a measure of viable cells.

The target of a further experiment is T1, ALK5 (Homo sapiens, UniProt P36897).
T1 sequence (P36897 34-503): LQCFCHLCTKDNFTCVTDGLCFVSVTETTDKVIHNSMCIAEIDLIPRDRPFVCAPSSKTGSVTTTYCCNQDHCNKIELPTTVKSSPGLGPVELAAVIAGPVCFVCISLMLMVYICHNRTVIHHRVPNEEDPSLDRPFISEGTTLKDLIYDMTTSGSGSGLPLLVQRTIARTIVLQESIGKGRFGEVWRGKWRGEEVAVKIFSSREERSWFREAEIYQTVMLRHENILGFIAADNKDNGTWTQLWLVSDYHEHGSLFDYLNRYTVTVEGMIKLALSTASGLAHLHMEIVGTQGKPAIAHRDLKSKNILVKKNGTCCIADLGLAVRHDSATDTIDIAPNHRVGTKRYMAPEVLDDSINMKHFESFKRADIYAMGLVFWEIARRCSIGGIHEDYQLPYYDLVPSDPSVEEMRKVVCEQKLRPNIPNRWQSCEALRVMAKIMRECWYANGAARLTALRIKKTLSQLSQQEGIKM
The experiment is described as follows: recombinant kinase assays. In kind it is biochemical. The source says: Compound N was compared to Compound C in a number of in vitro assays.

Experiment [2] has as its system TGF-β-induced luciferase activity in HEK293T cells. Description: TGF-β-induced SMAD luciferase reporter assay in HEK293T cells. The experiment is classed as cell-based, human. As to conditions: HEK-293T. As to the method:
Compounds A-D were tested to determine whether they could inhibit TGF-β-induced luciferase activity in HEK293T cells in vitro.
30,000 HEK293T cells were seeded in a 96 well white flat bottom plate overnight. The next day 100 ng of a SMAD luciferase reporter plasmid per well was transfected into the cells using lipofectamine for 24 hours. The next day cells were treated with Compounds A-D and 100 pM TGFβ for 24 hours. Luciferase activity was measured using the Dual-Glo® luciferase assay kit (Promega). The assay was run twice for Compounds A, B, and D, and three times for Compound C.
A general note: In a reporter assay the amount or activity of a reporter protein is the signal.

Setting [3] is: Kinase = 1.5 nM, read-out: IC50 (nM) (Kinase = 1.5 nM).
Setting [4] is: Kinase = 25 nM, read-out: IC50 (nM) (Kinase = 25 nM).
Setting [5] is: Morrison equat/ 5 uM ATP, read-out: Ki (nM) (Morrison equat/ 5 uM ATP).
Setting [6] is: Steady state equation, read-out: Ki (nM) (Steady state equation).

Molecules are shown by their SMILES. Like-named read-outs stand apart in the source and are kept apart here.

Regarding `CNCCOc1ccc(-c2cc(-c3c[nH]nc3-c3ccccn3)ccn2)cc1` [Compound B, N-methyl-2-(4-(4-(3-(pyridin-2-yl)-1H-pyrazol-4-yl)pyridin-2-yl)phenoxy)ethan-1-amine], in experiment [1] (1 nM TGF-β1, 72 hours), the “effect on TGFβ-mediated inhibition of T cell proliferation” value (shortened to “effect on TGFβ-mediated inhibition”) is recorded as “reversed TGFβ-mediated inhibition of T cell proliferation”.
In the case of `CCNC(=O)c1ccc2c(c1)NC(=O)/C2=C(\Nc1ccc(N(CCNC)S(C)(=O)=O)cc1)c1ccccc1` [Compound D, (Z)-N-ethyl-3-(((4-(N-(2-(methylamino)ethyl)methylsulfonamido)phenyl)amino)(phenyl)methylene)-2-oxoindoline-6-carboxamide], in experiment [1] (1 nM TGF-β1, 72 hours), the “effect on TGFβ-mediated inhibition” value is “not obtained” and the “Experiment 1 IC50 (nM)” value is listed as “Value not obtained”. Also, the “Experiment 2 IC50 (nM)” value in experiment [1] (Experiment 2, 1 nM TGF-β1, 72 hours) is recorded as “Value not obtained”.
For `Cc1cccc(-c2nc(N)sc2-c2ccc3ncccc3n2)n1` [Compound A, 4-(6-methylpyridin-2-yl)-5-(1,5-naphthyridin-2-yl)thiazol-2-amine], in experiment [1] (1 nM TGF-β1, 72 hours), the “effect on TGFβ-mediated inhibition” value is recorded as “did not show consistent effects” and the “Experiment 1 IC50 (nM)” value is on record as “Value not obtained”.
Take `CNCCOc1ccc(-c2cc(-c3c[nH]nc3-c3cccc(C)n3)ccn2)cc1` [Compound C, N-methyl-2-(4-(4-(3-(6-methylpyridin-2-yl)-1H-pyrazol-4-yl)pyridin-2-yl)phenoxy)ethan-1-amine]: the “fold more potent than Compound N in the recombinant assays” value at ALK5 worked out at 10 fold. The IC50 was 1.8 nM on ALK5 (setting [3]); 10 nM on ALK5 (setting [4]); 11.7 nM in experiment [2] (summary value, human HEK cells, read-out: HEK Luciferase Assay); 10.1 nM in experiment [2] (Homo sapiens, Experiment 1, 100 pM TGFβ, 24 hours, read-out: Experiment 1 IC50); 26 nM in experiment [1] (CD4+ T, summary value, mouse T cells, read-out: Mouse T cell proliferation assay). Moreover, the Ki on ALK5 (setting [5]) was found to be 0.11 nM; at ALK5 (setting [6]), 2.25 nM. The “effect on TGFβ-mediated inhibition” value in experiment [1] (1 nM TGF-β1, 72 hours) was “reversed TGFβ-mediated inhibition of T cell proliferation”.
Regarding `CCc1cc(-c2ccc3ncnc(N)c3c2)n(-c2cccc(C)n2)n1` [Compound N], the IC50 is 12 nM on ALK5 (setting [3]) and 18 nM at ALK5 (setting [4]). Further, the Ki on ALK5 (setting [5]) was 2.1 nM; on ALK5 (setting [6]) it was 18.4 nM.
